Measured values from patent US20250268815A1, “TRANSDERMAL DELIVERY SYSTEMS FOR ADMINISTRATION OF HYDROPHILIC MOLECULES AND METHODS OF MAKING AND USING SAME” (STATE OF ISRAEL, MINISTRY OF AGRICULTURE & RURAL …, priority 2021, published 2025).

Columns and labels:
[1] = test system: Human skin (full thickness)

insulin permeation across human skin ex vivo [1] | Compound | trans-epidermal water loss (TEWL), Baseline (skin; before application, 5 hr exposure experiment) [g/m^2/hr] | increase of water loss (TEWL) (skin; positive control, same experimental settings) [fold]
 | CCCCCCCCCCCCOS(=O)(=O)[O-].[Na+] [SDS, sodium dodecyl sulfate] | 10.0 ± 2.4 | ~3
did not enhance insulin permeation | Sodium carboxymethyl cellulose [CMC] |  | 
